Laboratory results reported in US11846638B2, “Methods for detecting Na/K-ATPase-mediated Src signaling for diagnosis and prognosis of cancer” (Marshall University Research Corporation, priority 2017, dated 2023).
Entries after “also recorded” stand apart in the source; their conditions may differ.

Columns and labels:
[1] = system: α1 Na/K-ATPase Y260 phosphorylation; test: Y260 phosphorylation of α1 Na/K-ATPase in LLC-PK1 cells (immunoblot); format: cell-based, porcine
Procedure: (§1) Cell culture and cell line generation. All cell lines were purchased from and maintained according to ATCC (Manassas, Va.). LLC-PK1 was serum starved before being used for signaling experiments. AAC-19, Y260A and DU145, A4-7 cell lines were cultured in the presence of 0.5% and 1% serum respectively for 24 hours before being used for the signaling experiments. LLC-PK1 cells were transfected (Lipofectamine 2000) with pEYFP-C1 vector containing α1 CD2, α2 CD2 or pEYFP-C1 empty vector. After verifying YFP expression visually, the cells were selected with 1 mg/ml G418 for one week. G418 resistant clones were selected and expanded. Cells were then cultured without G418 for at least three generations before being used for experiments. CD2N and CD2C cells were generated in similar manner. Y260A cells were generated by transfecting PY-17 cells with pRC/CMV-α1 AACm1 vector harboring mutation at Y260 and selected with ouabain (3 μM). Ouabain-resistant clones were isolated and expanded into stable cell lines. The cells were cultured for at least 3 generations without ouabain before being used for any experiment. DU-P1, A4-7 and A4-3 cell lines were generated by transfecting DU145 cells with a α1 Na/K-ATPase-specific siRNA containing vector and selecting with Puromycin as described above. All constructs were verified by DNA sequencing.
(§2) Immunoblot, Immunoprecipitation and Immunostaining Analysis. Immunoblot assays were performed as described previously. Intensity of bands were quantified with ImageJ software (NIH). Immunoprecipitation was performed by adding 5 μg of anti-Src (Millipore Cat #05-184) antibody to 500 μg of cell lysate (1 μg/μl concentration) or 8 μg of anti-α1 Na/K-ATPase antibody (Millipore Cat #06-520) to 800 μg of cell lysate ([…] concentration). Precipitated proteins were then analyzed as described previously. For immunostaining antibodies used—anti-α1 Na/K-ATPase antibody (Millipore Cat #05-369) and Alexa Fluor 488-conjugated anti-mouse secondary antibody.

Akt = Akt activation (pS473Akt/Akt) by Western blot in AAC-19 and Y260A cells; format: cell-based, porcine; conditions: different concentrations of ouabain for 10 minutes
Procedure: as §1, with “DU-P1, A4-7 and A4-3 cell lines were generated by transfecting DU145 cells with a α1 Na/K-ATPase-specific siRNA containing vector and selecting with Puromycin as described above. All constructs were verified by DNA sequencing.” left out
(§3) Immunoblot, Immunoprecipitation and Immunostaining Analysis. […] Intensity of bands were quantified with ImageJ software (NIH). […] Precipitated proteins were then analyzed as described previously. […]

[2] = system: α1 Na/K-ATPase Y10 phosphorylation; test: Y10 phosphorylation of α1 Na/K-ATPase in LLC-PK1 cells (immunoblot); format: cell-based, porcine
Procedure: as §1, with “DU-P1, A4-7 and A4-3 cell lines were generated by transfecting DU145 cells with a α1 Na/K-ATPase-specific siRNA containing vector and selecting with Puromycin as described above. All constructs were verified by DNA sequencing.” left out
as §3

Src [3] = test: Src activation (pY418Src/c-Src) by Western blot in LLC-PK1, AAC-19 and Y260A cells; format: cell-based, porcine; conditions: for Src phosphorylation (pY418Src/c-Src): different concentrations of ouabain for 10 minutes
Procedure: as §1, §2

ERK1/2 = test: ERK activation (pERK1/2/ERK1/2) by Western blot in AAC-19 and Y260A cells; format: cell-based, porcine; conditions: for ERK phosphorylation (pERK1/2/ERK1/2): different concentrations of ouabain for 10 minutes
Procedure: as §1, §2

Src [4] = test: Src activation (pY418 Src/c-Src) by Western blot in DU-P1 and A4-7 cells; format: cell-based, human; conditions: different concentrations of EGF for 5 minutes
Procedure: as §1, with “DU-P1, A4-7 and A4-3 cell lines were generated by transfecting DU145 cells with a α1 Na/K-ATPase-specific siRNA containing vector and selecting with Puromycin as described above. All constructs were verified by DNA sequencing.” left out
as §3

EGFR [5] = test: EGFR activation (pY845 EGFR/EGFR) by Western blot in DU-P1 and A4-7 cells; format: cell-based, human; conditions: different concentrations of EGF for 5 minutes
Procedure: as §1, with “DU-P1, A4-7 and A4-3 cell lines were generated by transfecting DU145 cells with a α1 Na/K-ATPase-specific siRNA containing vector and selecting with Puromycin as described above. All constructs were verified by DNA sequencing.” left out
as §3

EGFR [6] = test: EGFR phosphorylation at Y845 in AAC-19 and Y260A cells; format: cell-based, porcine; conditions: AAC-19 cells; different concentrations of EGF
Procedure: as §1, with “DU-P1, A4-7 and A4-3 cell lines were generated by transfecting DU145 cells with a α1 Na/K-ATPase-specific siRNA containing vector and selecting with Puromycin as described above. All constructs were verified by DNA sequencing.” left out
as §3

AAC-19 and Y260A cells [7] = test: Extracellular acidification rate (ECAR), Seahorse, in AAC-19 and Y260A cells; format: cell-based, porcine; conditions: for ECAR after oligomycin (maximal capacity of glycolysis): after addition of glucose
Procedure: Bioenergetics. Properties of cellular bioenergetics were characterized using Seahorse XFp Extracellular Flux Analyzer by measuring oxygen consumption rate (OCR) and extracellular acidification rate (ECAR) following the guidelines provided by the manufacturer. Prior to the start of Seahorse assay, optimal FCCP concentration for each cell line was determined by titration studies. Unless indicated otherwise, 10,000 cells per well were seeded with culture medium. Bicarbonate-free medium (Agilent Technologies) with different substrates (10 mM glucose, 2 mM glutamine and 1 mM pyruvate for Cell Mito Stress Test assays; 2 mM glutamine for Glycolysis Stress Test assays) was replaced one hour prior to the assay. Baseline OCR and ECAR rates were measured three times before various inhibitors, stimulants, substrates, or compounds were added through the drug delivery ports. In the PP2 study, cells were pretreated with 5 μM PP2 for 4 h and then analyzed.

Y260A cells [8] = test: qPCR of upregulated metabolic genes in Y260A cells; format: cell-based, porcine; conditions: 5 μM PP2 overnight
Description: RNA Extraction, cDNA Synthesis and Quantitative PCR. Total RNA was isolated with the QIAGEN RNeasy Mini Kit. The same amount of total RNA was used for synthesizing first-stand cDNA with the SuperScript III First-Stand Synthesis SuperMix for qRT-PCR (ThermoFisher). The cDNA from each sample was used as a template for the quantitative PCR (Syber green) with Roche LightCycler® 480 Real-Time PCR System. All primers were synthesized by Integrated DNA Technologies (IDT). β-actin was used as internal control.

A4-7 cells [9] = test: Cell proliferation of A4-7 cells; format: cell-based, human; conditions: PP2, 48 hours
Procedure: Cell growth assay and MTT assay. Cell growth assay and MTT assay were performed as previously described.

A4-7 cells [10] = test: Lactate production in medium of A4-7 cells; format: cell-based, human; conditions: 5 μM PP2 for 4 h
Procedure: (§4) Biochemical measurement of ATP and lactate. ATP measurements were performed using CellTiter-Glo Luminescent Cell Viability Assay kit. 10,000 cells per well were cultured in 96-well culture plate. After treatment with 2-DG at indicated concentrations in serum-free DMEM for 45 minutes, assay reagents were reconstituted and added into culture plate. Luminescent counts of the reactants were determined from an opaque-walled 96-well plate with a microplate reader. Lactate measurement was done by colorimetric methods as described by previously. In PP2 study, culture medium containing serum and 5 μM PP2 was replaced in culture dish and collected after 4 hours for measurements.

Y260A cells [11] = test: Lactate production in culture medium of Y260A cells; format: cell-based, porcine; conditions: 5 μM PP2 for 4 h
Procedure: as §4

AAC-19 and Y260A cells [12] = test: Cellular ATP content (CellTiter-Glo) under glycolysis inhibition; format: cell-based, porcine; conditions: Y260A cells compared to AAC-19 cells; 2-DG 45 minutes in serum-free DMEM
Procedure: as §4

Molecule: C[C@@H]1O[C@@H](O[C@H]2C[C@@H](O)[C@]3(CO)[C@H]4[C@H](O)C[C@]5(C)[C@@H](C6=CC(=O)OC6)CC[C@]5(O)[C@@H]4CC[C@]3(O)C2)[C@H](O)[C@H](O)[C@H]1O [ouabain]
- Y260 phosphorylation ([1]; ouabain, function of time and concentration): increased
- Akt phosphorylation (pS473Akt/Akt) (Akt; AAC-19 cells): stimulated
- Akt phosphorylation (pS473Akt/Akt) (Akt; Y260A mutant cells): abolished
- Y10 phosphorylation ([2]; ouabain): no effect
- Src phosphorylation (pY418Src/c-Src) (Src [3]; AAC-19 cells): stimulated
- Src phosphorylation (pY418Src/c-Src) (Src [3]; Y260A mutant cells): abolished
- ERK phosphorylation (pERK1/2/ERK1/2) (ERK1/2; AAC-19 cells): stimulated
- ERK phosphorylation (pERK1/2/ERK1/2) (ERK1/2; Y260A mutant cells): abolished
- ouabain-induced ERK activation (pERK1/2/ERK 1/2) (ERK1/2; Y260A mutant clone 24 cells): failed to respond

Molecule: EGF: recombinant EGF, stimulates EGFR/Src signaling
- Src activation (pY418 Src/c-Src) (Src [4]; A4-7 cells): not in A4-7 cells
- Src activation (pY418 Src/c-Src) (Src [4]; DU-P1 cells): able to stimulate
- Y845 phosphorylation of EGFR (EGFR [5]; A4-7 cells): not in A4-7 cells
- Y845 phosphorylation of EGFR (EGFR [5]; DU-P1 cells): able to stimulate
- Y260 phosphorylation of Na/K-ATPase ([1]; recombinant EGF, time and dose): time- and dose-dependent stimulation
- Src kinase activity (Src [3]; AAC-19 cells, different concentrations of EGF): stimulated
- Src phosphorylation at Y418 (Src [3]; LLC-PK1 cells, recombinant EGF, time and dose): time- and dose-dependent stimulation
- phosphorylation of EGFR at Y845 (EGFR [6]): stimulated

Molecule: CC[C@H]1/C=C/C=C/C[C@@H](C)[C@H](O)[C@@](C)(O)C(=O)[C@@H](C)[C@H](O)[C@@H](C)C(=O)[C@@H](C)[C@H](O)[C@@H](C)/C=C/C(=O)O[C@@H]2[C@H](C)[C@H](CC1)O[C@]1(CC[C@H](C)[C@H](C[C@@H](C)O)O1)[C@H]2C [oligomycin]
- ECAR after oligomycin (maximal capacity of glycolysis) (AAC-19 and Y260A cells [7]; AAC-19 cells): further increase
- ECAR after oligomycin (maximal capacity of glycolysis) (AAC-19 and Y260A cells [7]; Y260A cells): not in Y260A cells

Molecule: CC(C)(C)n1nc(-c2ccc(Cl)cc2)c2c(N)ncnc21 [PP2]
- mRNA level of upregulated glycolytic/metabolic genes (Y260A cells [8]): restored the mRNA level of most of these upregulated genes; also recorded: reduced the expression
- Y260 phosphorylation ([1]; PP2 5 μM, 30 minutes pretreatment): attenuated
- glycolysis rate (ECAR) (AAC-19 and Y260A cells [7]; Y260A cells, 5 μM PP2 for 4 h): sufficient to reduce
- Y10 phosphorylation ([2]; PP2 5 μM, 30 minutes): Neither inhibitor nor knockout of Src kinase affected
- cell proliferation rate (A4-7 cells [9]): reversed; also recorded: inhibition
- lactate production (increased in A4-7 cells) (A4-7 cells [10]): sensitive to Src inhibition
- basal ERK activities (increased in Y260A cells) (ERK1/2; Y260A cells, PP2): sensitive to PP2; also recorded: sensitive to Src inhibitor
- lactate production (Y260A cells [11]): sufficient to reduce; also recorded: blocked the increase

Molecule: O=CC[C@@H](O)[C@H](O)[C@H](O)CO [2-DG, 2-deoxyglucose]
- ECAR after 2-DG (AAC-19 and Y260A cells [7]; AAC-19 and Y260A cells, after glucose and oligomycin): completely reversed the increase
- cellular ATP content in response to inhibition of glycolysis (AAC-19 and Y260A cells [12]): much more sensitive
